{"source": "patent US20220195384A1", "about": "“COMPOSITION FOR PROMOTING PRODUCTION OF STEM CELL-DERIVED EXOSOMES AND INCREASING STEMNESS” (BREXOGEN INC., priority 2019, published 2022)", "system": "primary umbilical cord-derived mesenchymal stem cells", "assay": "Stem cell stemness: colony formation (CFU-F, crystal violet) after pretreatment", "assay_type": "cell-based", "details": "10 ng/mL interferon-γ pretreatment one week", "method": "(§1) In a culture medium [high glucose DMEM (Gibco, Cat no. 11995-065); 10% fetal bovine serum (HyClone), 1% MEM non-essential amino acids solution (100×) (Gibco, Cat no. 11140-050)] containing 20 nM of exendin-4, primary umbilical cord-derived mesenchymal stem cells (ATCC No. PCS-500-010; Lot No. 63822428) were cultured for one week.\nas §1, with “10” for “20”, “PMA,” for “exendin-4,”\nas §1, with “10 ng/mL interferon-γ,” for “20 nM of exendin-4,”\nas §1, with “10 μM” for “20 nM”, “tetrandrine,” for “exendin-4,”\nas §1, with “10 μg/mL hyaluronic acid,” for “20 nM of exendin-4,”\nas §1, with “30” for “20”, “substance P,” for “exendin-4,”\nas §1, with “10” for “20”, “resveratrol,” for “exendin-4,”\nas §1, with “10 μM” for “20 nM”, “lanifibranor,” for “exendin-4,”\nMesenchymal stem cells and the exendin-4-pretreated mesenchymal stem cells of the Example were each seeded at a density of 1,000 cells/dish into 100-mm cell culture dishes containing […] of a culture medium [high glucose DMEM (Gibco, Cat no. 11995-065), 10% fetal bovine serum (HyClone), 1% MEM non-essential amino acids solution (100×) (Gibco, Cat no. 11140-050)] per dish and cultured for 21 days. The cell-attached dishes were washed twice with PBS, followed by fixation with 95% methanol at room temperature for about 2 min. The fixed cells were washed three times with PBS and stained with 0.5% crystal violet [(sigma, C-3886, USA) […], methanol 100 ml] for 5 min. After water washing and drying at room temperature, colonies, each composed of 50 or more cells, were counted for comparison.\nMesenchymal stem cells and the PMA-pretreated mesenchymal stem cells of the Example were each seeded at a density of 1,000 cells/dish into 100-mm cell culture dishes containing […] of a culture medium [high glucose DMEM (Gibco, Cat no. 11995-065), 10% fetal bovine serum (HyClone), 1% MEM non-essential amino acids solution (100×) (Gibco, Cat no. 11140-050)] per dish and cultured for 21 days. The cell-attached dishes were washed twice with PBS, followed by fixation with 95% methanol at room temperature for about 2 min. […]", "data": [{"substance": "interferon-γ [IFNγ MSC-Exo = exosomes of IFNγ-treated mesenchymal stem cells]", "values": [{"measurement": "colonies formed (each 50 or more cells)", "setting": "1,000 cells/dish, 21 days, non-treated 28.6", "value": 136, "unit": "colonies"}, {"measurement": "CFU-F increase", "setting": "vs non-treated", "value": "about 476%"}]}]}
